{"source": "patent US6737383B1", "about": "“Herbicidal oxadiazolidines” (priority 1999, dated 2004)", "key": {"fall panicum": {"system": "fall panicum", "experiment": "Test C postemergence fall panicum", "type": "in vivo, Panicum dichotomiflorum", "details": "0 to 100 scale, 0 no effect, 100 complete control", "in_short": "(§1)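 Soil: sandy loam/potting mix 60:40. Treatment: postemergence, solvent + surfactant formulation. Readout: visual control score 0–100 vs untreated at ~14–21 days.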"}, "giant foxtail": {"system": "giant foxtail", "experiment": "Test C postemergence giant foxtail", "type": "in vivo, Setaria faberii", "details": "0 to 100 scale, 0 no effect, 100 complete control", "in_short": "as §1"}, "ivyleaf morningglory": {"system": "ivyleaf morningglory", "experiment": "Test C postemergence ivyleaf morningglory", "type": "in vivo, Ipomoea hederacea", "details": "0 to 100 scale, 0 no effect, 100 complete control", "in_short": "as §1"}, "johnsongrass": {"system": "johnsongrass", "experiment": "Test C postemergence johnsongrass", "type": "in vivo, Sorghum halepense", "details": "0 to 100 scale, 0 no effect, 100 complete control", "in_short": "as §1"}, "lambsquarters": {"system": "lambsquarters", "experiment": "Test C postemergence lambsquarters", "type": "in vivo, Chenopodium album", "details": "0 to 100 scale, 0 no effect, 100 complete control", "in_short": "as §1"}, "redroot pigweed [1]": {"system": "redroot pigweed", "experiment": "Test C postemergence redroot pigweed", "type": "in vivo, Amaranthus retroflexus", "details": "0 to 100 scale, 0 no effect, 100 complete control", "in_short": "as §1"}, "surinam grass": {"system": "surinam grass", "experiment": "Test C postemergence surinam grass", "type": "in vivo, Brachiaria decumbens", "details": "0 to 100 scale, 0 no effect, 100 complete control", "in_short": "as §1"}, "black nightshade": {"system": "black nightshade", "experiment": "Test E black nightshade", "type": "in vivo, Solanum nigra", "details": "Postemergence; for Plant response rating, Blk nightshade: 0 to 100 scale", "in_short": "(§2)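 For postemergence, sowings are timed so plants reach the 1- to 4-leaf stage at spraying. Test compound is applied in a surfactant-containing solvent mixture that is non-phytotoxic. Response is judged by eye against untreated controls after approximately 21 to 28 days.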"}, "kochia": {"system": "kochia", "experiment": "Test E kochia", "type": "in vivo, Kochia scoparia", "details": "Postemergence; for Plant response rating, Kochia: 0 to 100 scale", "in_short": "as §2"}, "sunflower": {"system": "sunflower", "experiment": "Test E sunflower", "type": "in vivo, Helianthus annuus", "details": "Postemergence; for Plant response rating, Sunflower: 0 to 100 scale", "in_short": "as §2"}, "redroot pigweed [2]": {"system": "redroot pigweed", "experiment": "Test E redroot pigweed", "type": "in vivo, Amaranthus retroflexus", "details": "Preemergence"}, "[3]": {"details": "Rate 500 g/ha, 0 no effect, 100 complete control"}, "[4]": {"details": "Rate 250 g/ha, 0 to 100 scale where 0 is no effect and 100 is complete control"}}, "data": [{"smiles": "C=CCn1c(=O)on(C(=O)N(c2ccc(F)cc2)C(C)C)c1=O", "note": "[Compound 146]", "values": [{"measurement": "Plant response rating Fall panicum", "setting": "fall panicum; Rate 140 g/ha", "value": 50}, {"measurement": "Plant response rating Fall panicum", "setting": "fall panicum; Rate 280 g/ha", "value": 60}, {"measurement": "Plant response rating Fall panicum", "setting": "fall panicum; Rate 560 g/ha", "value": 90}, {"measurement": "Plant response rating Fall panicum", "setting": "fall panicum; Rate 1120 g/ha", "value": 90}, {"measurement": "Plant response rating, Giant foxtail", "setting": "giant foxtail; Rate 140 g/ha", "value": 0}, {"measurement": "Plant response rating, Giant foxtail", "setting": "giant foxtail; Rate 280 g/ha", "value": 40}, {"measurement": "Plant response rating, Giant foxtail", "setting": "giant foxtail; Rate 560 g/ha", "value": 80}, {"measurement": "Plant response rating, Giant foxtail", "setting": "giant foxtail; Rate 1120 g/ha", "value": 85}, {"measurement": "Plant response rating I. morningglory", "setting": "ivyleaf morningglory; Rate 140 g/ha", "value": 0}, {"measurement": "Plant response rating I. morningglory", "setting": "ivyleaf morningglory; Rate 280 g/ha", "value": 20}, {"measurement": "Plant response rating I. morningglory", "setting": "ivyleaf morningglory; Rate 560 g/ha", "value": 20}, {"measurement": "Plant response rating I. morningglory", "setting": "ivyleaf morningglory; Rate 1120 g/ha", "value": 50}, {"measurement": "Plant response rating Johnsongrass", "setting": "johnsongrass; Rate 140 g/ha", "value": 0}, {"measurement": "Plant response rating Johnsongrass", "setting": "johnsongrass; Rate 280 g/ha", "value": 30}, {"measurement": "Plant response rating Johnsongrass", "setting": "johnsongrass; Rate 560 g/ha", "value": 60}, {"measurement": "Plant response rating Johnsongrass", "setting": "johnsongrass; Rate 1120 g/ha", "value": 90}, {"measurement": "Plant response rating Lambsquarters", "setting": "lambsquarters; Rate 140 g/ha", "value": 0}, {"measurement": "Plant response rating Lambsquarters", "setting": "lambsquarters; Rate 280 g/ha", "value": 5}, {"measurement": "Plant response rating Lambsquarters", "setting": "lambsquarters; Rate 560 g/ha", "value": 10}, {"measurement": "Plant response rating Lambsquarters", "setting": "lambsquarters; Rate 1120 g/ha", "value": 50}, {"measurement": "Plant response rating, Redroot pigweed", "setting": "redroot pigweed [1]; Rate 140 g/ha", "value": 0}, {"measurement": "Plant response rating, Redroot pigweed", "setting": "redroot pigweed [1]; Rate 1120 g/ha", "value": 20}, {"measurement": "Plant response rating Surinam grass", "setting": "surinam grass; Rate 140 g/ha", "value": 0}, {"measurement": "Plant response rating Surinam grass", "setting": "surinam grass; Rate 280 g/ha", "value": 5}, {"measurement": "Plant response rating Surinam grass", "setting": "surinam grass; Rate 560 g/ha", "value": 50}, {"measurement": "Plant response rating Surinam grass", "setting": "surinam grass; Rate 1120 g/ha", "value": 95}, {"measurement": "Plant response rating, Blk nightshade", "setting": "black nightshade; Rate 62 g/ha", "value": 50}, {"measurement": "Plant response rating, Blk nightshade", "setting": "black nightshade; Rate 125 g/ha", "value": 50}, {"measurement": "Plant response rating, Blk nightshade", "setting": "black nightshade; [3]", "value": 70}, {"measurement": "Blk nightshade plant response rating", "setting": "black nightshade; [4]", "value": 40}, {"measurement": "Plant response rating, Kochia", "setting": "kochia; Rate 62 g/ha", "value": 30}, {"measurement": "Plant response rating, Kochia", "setting": "kochia; Rate 125 g/ha", "value": 10}, {"measurement": "Plant response rating, Kochia", "setting": "kochia; [3]", "value": 40}, {"measurement": "Kochia plant response rating", "setting": "kochia; [4]", "value": 10}, {"measurement": "Plant response rating, Sunflower", "setting": "sunflower; Rate 62 g/ha", "value": 0}, {"measurement": "Plant response rating, Sunflower", "setting": "sunflower; Rate 125 g/ha", "value": 40}, {"measurement": "Plant response rating, Sunflower", "setting": "sunflower; [3]", "value": 50}, {"measurement": "Sunflower plant response rating", "setting": "sunflower; [4]", "value": 40}, {"measurement": "Plant response rating, Redroot pigweed", "setting": "redroot pigweed [2]; Rate 125 g/ha, 0 to 100 scale (0 no effect, 100 complete control)", "value": 70}, {"measurement": "Redroot pigweed plant response rating (0 to 100 scale)", "setting": "redroot pigweed [2]; Rate 250 g/ha", "value": 100}, {"measurement": "Plant response rating, Redroot pigweed", "setting": "redroot pigweed [2]; Rate 500 g/ha, 0 to 100 scale where 0 is no effect and 100 is complete control", "value": 100}]}]}
